Assay results: ChEMBL document CHEMBL5465560, “Selectivity Literature for EUbOPEN Chemogenomic Library” (2024)
Each block holds one compound with its values, some of them ahead of it.

Columns and labels:
[1] = target: Calcium/calmodulin-dependent protein kinase type 1G (Homo sapiens) (UniProt Q96NX5); assay: Selectivity interaction (Kinase panel (Z-LYTE Assay)) EUB0001632a CAMK1G; conditions: at 10 µM
[2] = target: Melanocortin receptor 4 (Homo sapiens) (UniProt P32245); assay: Selectivity interaction (Eurofins CEREP Diversity Profile (receptors and ion channels)) EUB0000279b MC4R; conditions: at 10 µM
Melanocortin receptor 4 (Homo sapiens), sequence (P32245 whole entry): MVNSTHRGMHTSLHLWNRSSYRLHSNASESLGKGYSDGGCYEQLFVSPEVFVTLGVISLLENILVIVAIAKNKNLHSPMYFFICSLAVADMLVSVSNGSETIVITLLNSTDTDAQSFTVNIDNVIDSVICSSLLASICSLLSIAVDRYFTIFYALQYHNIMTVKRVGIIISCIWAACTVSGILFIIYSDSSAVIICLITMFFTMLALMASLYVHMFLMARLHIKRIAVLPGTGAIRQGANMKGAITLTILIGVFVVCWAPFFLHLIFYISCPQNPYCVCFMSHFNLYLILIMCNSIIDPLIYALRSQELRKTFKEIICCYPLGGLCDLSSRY

[3] = target: cGMP-inhibited 3',5'-cyclic phosphodiesterase 3A (Homo sapiens, UniProt Q14432); assay: Selectivity interaction (Phosphodiesterase 3 from human platelets ) EUB0000877a PDE3A; format: cell-based, Platelet
cGMP-inhibited 3',5'-cyclic phosphodiesterase 3A, sequence (Q14432 whole entry): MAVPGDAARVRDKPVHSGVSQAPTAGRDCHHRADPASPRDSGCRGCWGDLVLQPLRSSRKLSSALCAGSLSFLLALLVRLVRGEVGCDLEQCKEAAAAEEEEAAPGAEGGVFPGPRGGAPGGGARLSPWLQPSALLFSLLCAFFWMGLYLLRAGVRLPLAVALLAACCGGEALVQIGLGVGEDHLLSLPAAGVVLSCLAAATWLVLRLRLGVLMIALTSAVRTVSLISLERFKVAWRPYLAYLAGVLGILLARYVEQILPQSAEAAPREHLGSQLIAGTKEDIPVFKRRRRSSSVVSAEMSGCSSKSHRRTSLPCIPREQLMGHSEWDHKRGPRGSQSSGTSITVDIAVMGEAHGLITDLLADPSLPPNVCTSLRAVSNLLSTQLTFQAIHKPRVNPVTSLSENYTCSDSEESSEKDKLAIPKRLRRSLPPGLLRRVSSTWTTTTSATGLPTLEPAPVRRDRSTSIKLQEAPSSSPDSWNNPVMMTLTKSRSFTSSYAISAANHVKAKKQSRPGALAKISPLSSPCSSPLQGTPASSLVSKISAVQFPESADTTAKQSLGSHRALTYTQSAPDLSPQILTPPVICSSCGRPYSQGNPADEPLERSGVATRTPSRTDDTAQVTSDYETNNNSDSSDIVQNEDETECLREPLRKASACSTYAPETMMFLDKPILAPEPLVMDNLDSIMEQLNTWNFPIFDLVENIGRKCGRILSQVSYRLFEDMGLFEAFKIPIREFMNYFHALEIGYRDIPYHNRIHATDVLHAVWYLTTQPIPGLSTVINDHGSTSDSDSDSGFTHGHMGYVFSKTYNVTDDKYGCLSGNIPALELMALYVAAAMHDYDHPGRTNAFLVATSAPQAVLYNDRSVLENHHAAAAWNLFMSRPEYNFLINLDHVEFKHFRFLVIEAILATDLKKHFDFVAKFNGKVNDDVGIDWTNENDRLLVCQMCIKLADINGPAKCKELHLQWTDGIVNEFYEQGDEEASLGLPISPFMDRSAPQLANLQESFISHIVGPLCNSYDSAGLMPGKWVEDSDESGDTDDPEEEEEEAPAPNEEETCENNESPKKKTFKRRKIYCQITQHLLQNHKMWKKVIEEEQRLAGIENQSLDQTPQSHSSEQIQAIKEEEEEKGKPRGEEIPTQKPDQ

[4] = target: MAP kinase-interacting serine/threonine-protein kinase 1 (Homo sapiens) (UniProt Q9BUB5); assay: Selectivity interaction (Kinase panel (literature)) EUB0001199aCl MKNK1; conditions: at 1 µM
MAP kinase-interacting serine/threonine-protein kinase 1 (Homo sapiens), sequence (Q9BUB5 whole entry, looked up): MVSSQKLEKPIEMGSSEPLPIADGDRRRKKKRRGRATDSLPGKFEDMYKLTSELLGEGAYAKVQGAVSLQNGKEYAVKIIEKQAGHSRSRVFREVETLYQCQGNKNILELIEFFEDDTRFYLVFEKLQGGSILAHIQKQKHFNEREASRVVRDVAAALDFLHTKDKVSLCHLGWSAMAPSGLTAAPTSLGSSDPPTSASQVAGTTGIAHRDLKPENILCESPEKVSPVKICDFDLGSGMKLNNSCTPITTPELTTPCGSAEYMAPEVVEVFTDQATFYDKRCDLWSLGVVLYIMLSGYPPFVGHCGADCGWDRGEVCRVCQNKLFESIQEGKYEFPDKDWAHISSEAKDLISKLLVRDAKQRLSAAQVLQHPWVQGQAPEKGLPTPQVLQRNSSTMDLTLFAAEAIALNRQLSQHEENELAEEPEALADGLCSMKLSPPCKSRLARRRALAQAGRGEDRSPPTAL

[5] = target: Death-associated protein kinase 3 (Homo sapiens) (UniProt O43293); assay: Selectivity interaction (SelectScreen profiling (Invitrogen)) EUB0000607a DAPK3; conditions: at 2 µM
[6] = target: T1, Phosphatidylinositol 5-phosphate 4-kinase type-2 beta (Homo sapiens) (UniProt P78356); assay: Selectivity interaction (KinomeScan (DiscoverX)) EUB0000695a PIP4K2B; conditions: at 100 nM
T1 sequence (whole entry): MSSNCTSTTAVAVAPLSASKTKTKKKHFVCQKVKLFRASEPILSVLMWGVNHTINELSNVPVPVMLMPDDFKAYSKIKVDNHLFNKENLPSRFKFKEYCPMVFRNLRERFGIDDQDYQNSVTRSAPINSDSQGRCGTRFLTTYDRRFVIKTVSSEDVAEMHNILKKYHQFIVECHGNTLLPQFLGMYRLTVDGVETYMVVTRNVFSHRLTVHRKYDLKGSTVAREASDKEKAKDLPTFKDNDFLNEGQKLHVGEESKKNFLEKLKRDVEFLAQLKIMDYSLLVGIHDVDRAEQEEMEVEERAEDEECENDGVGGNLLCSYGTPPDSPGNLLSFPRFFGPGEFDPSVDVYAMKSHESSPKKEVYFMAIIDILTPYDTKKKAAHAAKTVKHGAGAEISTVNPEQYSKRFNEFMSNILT

[7] = target: Serine/threonine-protein kinase MARK1 (Homo sapiens) (UniProt Q9P0L2); assay: Selectivity interaction (KinomeScan (DiscoverX)) EUB0001049a MARK1; conditions: at 1 µM
Serine/threonine-protein kinase MARK1 (Homo sapiens), sequence (Q9P0L2 whole entry, looked up): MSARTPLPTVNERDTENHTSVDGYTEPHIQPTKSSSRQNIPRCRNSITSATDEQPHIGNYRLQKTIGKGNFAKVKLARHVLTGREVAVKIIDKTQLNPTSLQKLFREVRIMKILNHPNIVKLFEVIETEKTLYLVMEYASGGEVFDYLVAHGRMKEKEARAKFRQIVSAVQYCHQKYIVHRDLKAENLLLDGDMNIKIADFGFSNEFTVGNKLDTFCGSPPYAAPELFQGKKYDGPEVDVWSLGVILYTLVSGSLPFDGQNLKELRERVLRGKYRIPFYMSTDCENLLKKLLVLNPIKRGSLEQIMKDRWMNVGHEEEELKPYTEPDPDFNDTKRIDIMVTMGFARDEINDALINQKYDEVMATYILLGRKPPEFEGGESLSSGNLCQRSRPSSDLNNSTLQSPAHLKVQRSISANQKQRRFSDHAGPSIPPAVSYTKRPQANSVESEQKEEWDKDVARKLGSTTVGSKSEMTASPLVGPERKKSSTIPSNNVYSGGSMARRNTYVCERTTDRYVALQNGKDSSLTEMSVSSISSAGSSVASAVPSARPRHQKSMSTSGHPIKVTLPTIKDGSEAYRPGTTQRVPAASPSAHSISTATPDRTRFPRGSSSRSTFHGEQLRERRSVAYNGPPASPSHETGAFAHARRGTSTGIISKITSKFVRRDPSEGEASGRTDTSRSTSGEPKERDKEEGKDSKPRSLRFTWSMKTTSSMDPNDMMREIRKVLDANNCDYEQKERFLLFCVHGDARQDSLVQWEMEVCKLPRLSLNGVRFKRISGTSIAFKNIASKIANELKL

[8] = target: T2, Myosin light chain kinase family member 4 (Homo sapiens) (UniProt Q86YV6); assay: Selectivity interaction (KinomeScan (DiscoverX)) EUB0001049a MYLK4; conditions: at 1 µM
T2 sequence (whole entry): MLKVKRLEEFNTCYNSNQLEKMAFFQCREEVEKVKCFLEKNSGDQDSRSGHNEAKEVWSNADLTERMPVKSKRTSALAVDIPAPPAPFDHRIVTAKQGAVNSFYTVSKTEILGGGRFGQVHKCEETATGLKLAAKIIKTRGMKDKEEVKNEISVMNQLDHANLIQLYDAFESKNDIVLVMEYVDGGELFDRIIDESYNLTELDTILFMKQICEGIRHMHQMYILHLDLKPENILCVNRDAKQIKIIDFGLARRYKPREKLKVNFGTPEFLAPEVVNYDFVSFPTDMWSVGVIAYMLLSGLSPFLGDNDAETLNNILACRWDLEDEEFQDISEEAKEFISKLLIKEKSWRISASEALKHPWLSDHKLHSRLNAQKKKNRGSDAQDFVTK

[9] = target: Serine/threonine-protein kinase Chk2 (Homo sapiens) (UniProt O96017); assay: Selectivity interaction (Kinase panel (DSF assay)) EUB0001558a CHEK2
Serine/threonine-protein kinase Chk2 (Homo sapiens), sequence (O96017 whole entry): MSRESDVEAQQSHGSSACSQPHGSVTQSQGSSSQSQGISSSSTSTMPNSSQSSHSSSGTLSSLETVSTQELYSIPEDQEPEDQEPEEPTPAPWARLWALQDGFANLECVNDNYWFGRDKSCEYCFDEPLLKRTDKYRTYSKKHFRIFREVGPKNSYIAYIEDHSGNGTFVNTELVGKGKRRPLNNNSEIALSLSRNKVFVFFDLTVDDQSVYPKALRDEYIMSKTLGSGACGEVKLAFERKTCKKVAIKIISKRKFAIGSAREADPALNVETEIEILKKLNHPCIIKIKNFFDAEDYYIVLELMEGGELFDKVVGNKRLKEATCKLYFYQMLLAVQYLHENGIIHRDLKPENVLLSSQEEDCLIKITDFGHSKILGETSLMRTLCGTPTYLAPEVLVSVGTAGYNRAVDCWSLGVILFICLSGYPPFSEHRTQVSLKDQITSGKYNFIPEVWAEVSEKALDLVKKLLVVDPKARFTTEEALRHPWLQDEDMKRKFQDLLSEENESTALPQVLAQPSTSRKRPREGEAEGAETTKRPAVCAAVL

[10] = target: Cyclin-dependent kinase-like 3 (Homo sapiens) (UniProt Q8IVW4); assay: Selectivity interaction (KinomeScan (DiscoverX)) EUB0000045b CDKL3
Cyclin-dependent kinase-like 3 (Homo sapiens), sequence (Q8IVW4 whole entry, looked up): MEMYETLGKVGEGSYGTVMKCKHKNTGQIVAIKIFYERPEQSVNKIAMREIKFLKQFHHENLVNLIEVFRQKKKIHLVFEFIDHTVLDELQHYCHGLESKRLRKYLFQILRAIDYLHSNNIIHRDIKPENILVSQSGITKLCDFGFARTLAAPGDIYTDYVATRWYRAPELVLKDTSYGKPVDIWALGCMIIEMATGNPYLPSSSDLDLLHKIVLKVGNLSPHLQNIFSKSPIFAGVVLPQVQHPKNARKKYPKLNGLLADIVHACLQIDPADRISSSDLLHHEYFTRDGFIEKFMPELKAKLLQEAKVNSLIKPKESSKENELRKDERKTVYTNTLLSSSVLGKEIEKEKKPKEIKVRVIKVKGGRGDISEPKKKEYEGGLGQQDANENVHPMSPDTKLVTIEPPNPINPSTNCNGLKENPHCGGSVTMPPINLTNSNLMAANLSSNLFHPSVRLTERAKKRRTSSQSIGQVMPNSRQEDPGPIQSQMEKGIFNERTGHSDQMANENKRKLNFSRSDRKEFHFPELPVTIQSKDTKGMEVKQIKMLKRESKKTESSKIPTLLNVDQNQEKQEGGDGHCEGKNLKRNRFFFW

[11] = target: Vascular endothelial growth factor receptor 2 (Homo sapiens, UniProt P35968); assay: Selectivity interaction (KinomeScan (DiscoverX)) EUB0000229b KDR; conditions: at 10 µM
[12] = target: Protein kinase C theta type (Homo sapiens, UniProt Q04759); assay: Selectivity interaction (KinomeScan (DiscoverX)) EUB0000092b PRKCQ; conditions: at 10 µM
Protein kinase C theta type, sequence (Q04759 whole entry, looked up): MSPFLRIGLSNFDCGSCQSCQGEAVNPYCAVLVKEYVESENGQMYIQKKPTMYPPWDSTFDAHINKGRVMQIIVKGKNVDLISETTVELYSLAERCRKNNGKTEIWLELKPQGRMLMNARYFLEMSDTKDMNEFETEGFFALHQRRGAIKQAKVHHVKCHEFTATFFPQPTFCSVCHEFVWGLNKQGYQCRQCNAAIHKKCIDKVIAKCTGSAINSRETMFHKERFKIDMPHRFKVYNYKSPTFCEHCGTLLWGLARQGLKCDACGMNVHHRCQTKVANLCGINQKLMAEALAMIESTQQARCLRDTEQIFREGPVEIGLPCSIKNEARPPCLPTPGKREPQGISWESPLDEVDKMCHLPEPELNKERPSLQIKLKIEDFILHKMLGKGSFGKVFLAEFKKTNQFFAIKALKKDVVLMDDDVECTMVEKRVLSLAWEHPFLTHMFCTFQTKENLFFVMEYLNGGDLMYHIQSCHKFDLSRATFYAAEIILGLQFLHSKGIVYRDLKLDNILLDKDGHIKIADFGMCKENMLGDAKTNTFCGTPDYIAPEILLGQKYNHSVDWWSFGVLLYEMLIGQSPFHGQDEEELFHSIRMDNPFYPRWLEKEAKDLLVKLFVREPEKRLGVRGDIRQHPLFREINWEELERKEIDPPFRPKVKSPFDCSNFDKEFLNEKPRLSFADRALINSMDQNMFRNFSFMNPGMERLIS

[13] = target: T3, Mitogen-activated protein kinase kinase kinase kinase 3 (Homo sapiens) (UniProt Q8IVH8); conditions: at 10 µM
T3 sequence (whole entry): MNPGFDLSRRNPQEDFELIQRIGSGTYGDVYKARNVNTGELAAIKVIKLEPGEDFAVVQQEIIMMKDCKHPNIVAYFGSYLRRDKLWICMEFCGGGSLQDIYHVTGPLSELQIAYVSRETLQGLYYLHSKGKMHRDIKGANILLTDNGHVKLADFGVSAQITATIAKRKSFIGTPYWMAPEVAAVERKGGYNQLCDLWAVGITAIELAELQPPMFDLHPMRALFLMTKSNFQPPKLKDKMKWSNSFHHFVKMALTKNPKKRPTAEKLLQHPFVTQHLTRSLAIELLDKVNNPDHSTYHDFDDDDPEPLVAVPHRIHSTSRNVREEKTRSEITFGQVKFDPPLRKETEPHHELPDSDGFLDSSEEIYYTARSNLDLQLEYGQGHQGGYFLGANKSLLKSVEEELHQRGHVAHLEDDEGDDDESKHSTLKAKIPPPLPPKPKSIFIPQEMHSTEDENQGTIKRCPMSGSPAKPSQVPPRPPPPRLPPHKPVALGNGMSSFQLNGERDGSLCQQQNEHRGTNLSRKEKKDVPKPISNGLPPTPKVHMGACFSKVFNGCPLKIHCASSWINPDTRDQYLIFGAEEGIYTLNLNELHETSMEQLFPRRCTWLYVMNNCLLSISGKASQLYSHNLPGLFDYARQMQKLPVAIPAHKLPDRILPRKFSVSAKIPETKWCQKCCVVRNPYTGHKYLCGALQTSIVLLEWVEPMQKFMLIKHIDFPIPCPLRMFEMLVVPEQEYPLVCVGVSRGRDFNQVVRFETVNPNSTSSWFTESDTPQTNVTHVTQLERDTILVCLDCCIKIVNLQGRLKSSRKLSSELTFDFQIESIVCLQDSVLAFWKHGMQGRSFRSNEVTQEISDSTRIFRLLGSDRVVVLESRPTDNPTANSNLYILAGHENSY

[14] = target: Mitogen-activated protein kinase kinase kinase 20 (Homo sapiens) (UniProt Q9NYL2); assay: Selectivity interaction (ActivX KiNativ screen (ex vivo kinase selectivity in human PBMCs)) EUB0001619a MAP3K20; format: cell-based; conditions: PBMC, at 1 µM

Calcium/calmodulin-dependent protein kinase type 1G (Homo sapiens), sequence (Q96NX5 whole entry): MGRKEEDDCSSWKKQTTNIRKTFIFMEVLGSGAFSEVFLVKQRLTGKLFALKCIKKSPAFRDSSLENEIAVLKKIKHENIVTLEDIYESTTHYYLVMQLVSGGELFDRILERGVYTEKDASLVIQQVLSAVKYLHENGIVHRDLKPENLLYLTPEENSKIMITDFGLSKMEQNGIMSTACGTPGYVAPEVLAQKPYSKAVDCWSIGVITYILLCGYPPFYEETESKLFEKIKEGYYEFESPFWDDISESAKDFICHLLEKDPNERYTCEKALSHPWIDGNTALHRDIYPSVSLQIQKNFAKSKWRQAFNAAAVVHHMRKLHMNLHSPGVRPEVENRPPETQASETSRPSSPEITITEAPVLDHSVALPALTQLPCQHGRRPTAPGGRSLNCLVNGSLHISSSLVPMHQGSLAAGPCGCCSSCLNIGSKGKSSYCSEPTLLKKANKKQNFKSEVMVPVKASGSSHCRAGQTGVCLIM

- % of control [1]: -0.991%
Structure (SMILES): Cn1cc(-n2cnc3c(NCc4nc5cc(Cl)c(Cl)cc5[nH]4)nc(N4CCOCC4)nc32)cn1

- % of control [2]: 90%
Structure (SMILES): CC(=O)c1cc(-c2ccccc2OCC2CC2)c2ncccn12

- IC50 [3]: > 30 µM
Structure (SMILES): CCC(=O)N1CC[C@H](Nc2ncnc3c2CN(c2cnc(OC)c(C(F)(F)F)c2)CC3)C1 [LENIOLISIB]

- % of inhibition [4]: -1%
Structure (SMILES): CN1Cc2nccc(-c3cn(C)nc3-c3ccc(F)cc3)c2C1=O

Structure (SMILES): CNC(=O)Nc1ccc(-c2nc(N3CC4CCC(C3)O4)c3cnn(C4CCC5(CC4)OCCO5)c3n2)cc1
- % of inhibition [5]: 2%

Structure (SMILES): Cc1cc(F)c(C(=O)Nc2cccc(-c3nncn3C(C)C)n2)cc1-n1cnc(C2CC2)c1
- % of control [6]: 92%

Structure (SMILES): COc1cc(Nc2nc(C)cc(-c3cnn4nc(OC)ccc34)n2)cc(C(F)(F)F)c1
- % of control [7]: 98%
- % of control [8]: 100%

Structure (SMILES): CC(C)(O)[C@H](F)CN1Cc2cc(NC(=O)c3cnn4cccnc34)c(N3CCOCC3)cc2C1=O
- dTM [9]: 1.5 K

Structure (SMILES): C=CC(=O)Nc1cc(-n2c(=O)ccc3cnc4ccc(-c5ccc(NS(C)(=O)=O)cc5)cc4c32)ccc1C
- % of control ([10]; at 1 µM): 100%
- % of control ([10]; at 10 µM): 96%

Structure (SMILES): COc1cc(N(C)c2ccnc3ccc(C(F)(F)F)cc23)cc(OC)c1OC
- % binding [11]: 85%

Structure (SMILES): CCC(=O)N1CCN(c2ccc(-n3c(=O)ccc4cnc5ccc(-c6cnc7ccccc7c6)cc5c43)cc2C(F)(F)F)CC1
- % of control [12]: 91%

Structure (SMILES): Cc1cc([C@@H](C)Nc2ccccc2C(=O)O)c2nc(N3CCOCC3)cc(=O)n2c1 [AZD-6482]
- % of control [13]: 88%

Structure (SMILES): N#Cc1cccc(-c2c[nH]c3ncnc(N4CCOCC4)c23)c1
- % of inhibition [14]: -42%
